This note sets out measurements from patent US12458673B2, “Use of specific phages for the treatment of nontuberculosis mycobacteria (NTM) infections” (priority 2019, dated 2025).

The assay has as its system M. abscessus clinical isolates. The assay can be described thus: Antibiotic resistance profile of clinical isolates.

In the case of Trimethoprim/Sulfa, the “Antibiotic Susceptibility” value was determined as 1.
